Entries after “also recorded” stand apart in the source; their conditions may differ.
How the values were obtained:
[1] = test system: IFNγ-induced NO production in RAW cells; assay: iNOS assay: inhibition of NO production in RAW cells stimulated by interferon-γ; format: cell-based; settings: for IC50: Suppression of IFNγ-induced NO production, 24 h, Griess reaction, average of two experiments, read-out: RAW (10 ng/ml IFNγ) IC50
Procedure: (§1) Compounds of the present disclosure have been tested for inhibition of nitric oxide (NO) production in RAW cells stimulated by interferon-γ (iNOS assay) and induction of NAD(P)H-quinone oxidoreductase in Hepa1c1c7 cells (NQO1 assay), both assay systems we have previously employed. At the same time, CDDO and TBE-31 were tested as a positive controls in the same assays. […] The potency in the iNOS assay is more than CDDO (pentacycle), whose methyl ester is currently evaluated in Phase II clinical trials as an anti-inflammatory drug. Also the potency correlates to their reactivity as Michael acceptors based on the above-summarized UV studies.
For the iNOS assay, RAW cells were treated with various concentrations of compounds and interferon-γ (10 ng/mL) for 24 h. Supernatants were analyzed for nitric oxide (NO) by the Griess reaction. IC50 values are an average of two separate experiments.

[2] = test system: NAD(P)H-quinone oxidoreductase in Hepa1c1c7 cells; assay: NQO1 assay: induction of NAD(P)H-quinone oxidoreductase in Hepa1c1c7 cells; format: cell-based
Procedure: Novel monocyclic cyano enones (MCEs) were synthesized and their Michael reactivity and biological activity were tested in order to identify useful fragments for drug discovery. […] MCE-1 gives reversible and selective Michael adducts with thiol nucleophiles.
as §1

Keap1 = Keap1 (Mus musculus, UniProt Q9Z2X8); assay: UV studies with Keap1; settings: thiol-rich protein
Sequence of Keap1 (Q9Z2X8 whole entry): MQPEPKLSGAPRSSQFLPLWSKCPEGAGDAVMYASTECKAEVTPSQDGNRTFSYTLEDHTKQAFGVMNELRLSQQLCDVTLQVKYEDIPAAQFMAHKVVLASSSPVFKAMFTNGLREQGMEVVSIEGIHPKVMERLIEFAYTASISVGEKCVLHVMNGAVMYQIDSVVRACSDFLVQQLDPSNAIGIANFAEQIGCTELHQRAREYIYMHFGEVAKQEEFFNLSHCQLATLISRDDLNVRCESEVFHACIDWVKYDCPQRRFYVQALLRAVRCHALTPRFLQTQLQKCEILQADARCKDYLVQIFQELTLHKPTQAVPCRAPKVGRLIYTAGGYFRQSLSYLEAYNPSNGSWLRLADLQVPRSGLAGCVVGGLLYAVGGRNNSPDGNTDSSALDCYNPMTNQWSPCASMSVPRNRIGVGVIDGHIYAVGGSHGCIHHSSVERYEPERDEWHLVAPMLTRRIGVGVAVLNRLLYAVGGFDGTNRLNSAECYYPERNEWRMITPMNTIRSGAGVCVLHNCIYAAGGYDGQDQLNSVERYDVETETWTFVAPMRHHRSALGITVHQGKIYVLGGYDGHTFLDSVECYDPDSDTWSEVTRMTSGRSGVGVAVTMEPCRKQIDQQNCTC
Excerpt: Keap1 is an electrophile sensor in the cellular Keap1-Nrf2-antioxidant response elements (ARE) phase II response pathway that regulates the transcription of genes for cytoprotective enzymes such as HO-1 and NQO1.

[3] = test system: IFNγ-induced NO production in RAW cells; settings: RAW cells stimulated by interferon-γ; cited from earlier work
[4] = test system: aflatoxin-induced liver cancer; settings: rats, orally active; cited from earlier work

| Structure (SMILES) | IC50 [1] [nM] | potency in the NQO1 assay (in words) [2] | further results |
| --- | --- | --- | --- |
| CC1(C)CC[C@]2(C(=O)O)CC[C@]3(C)[C@H](C(=O)C=C4[C@@]5(C)C=C(C#N)C(=O)C(C)(C)[C@@H]5CC[C@]43C)[C@@H]2C1 [CDDO, 2-cyano-3,12-diooxooleana-1,9(11)-dien-28-oic acid, reference compound] | 20 |  |  |
| C#CC1(C)C=CC(=O)C(C#N)=C1 (stereo not shown) [MCE-1, 3-Ethynyl-3-methyl-6-oxocyclohexa-1,4-dienecarbonitrile] | 8 | highly potent; also recorded: highest potency amongst MCEs | potency in the iNOS assay (in words) ([1]; RAW cells stimulated by interferon-γ): highly potent; also recorded: higher than CDDO; also recorded: highest potency amongst MCEs; reactivity with Keap1 (UV) (Keap1): highest reactivity |
| CC1(C)C=CC(=O)C(C#N)=C1 [MCE-2, reference compound] | 380 |  |  |
| C#C[C@]12C=C(C#N)C(=O)C=C1[C@@]1(C)CCC(=O)C(C)(C)[C@@H]1CC2 [MCE-7] | > 300 | less potent than MCE-1 | activity in the iNOS assay ([1]; at a concentration of 300 nM): inactive |
| C=CC1(C)C=CC(=O)C(C#N)=C1 (stereo not shown) [MCE-15, 3-methyl-6-oxo-3-vinyl-cyclohexa-1,4-dienecarbonitrile] | 300 |  |  |
| C#CC12C=C(C#N)C(=O)C=C1[C@@]1(C)C=C(C#N)C(=O)C(C)(C)[C@@H]1CC2 (stereo partly shown) [TBE-31] | 1 |  | inhibition of NO production (iNOS assay), literature [3]: low nanomolecular concentrations; potency against aflatoxin-induced liver cancer [4]: exceptionally potent |

From patent US9000188B2, “Monocyclic cyanoenones and methods of use thereof” (Trustees of Dartmouth College, priority 2008, dated 2015)
